In brackets after ≈: the same amount, converted by molar mass.
Tests used:
HCT-116 [1] = assay: Induction of apoptosis in human HCT-116 cells assessed as viable cells at 25 nM incubated for 48 hrs by Annexin V/FITC staining based flow cytometric method (reference value: 97.66%); format: functional; settings: read-out: Activity
HCT-116 [2] = assay: Induction of apoptosis in human HCT-116 cells assessed as late apoptotic cells at 12.5 nM incubated for 48 hrs by Annexin V/FITC staining based flow cytometric method (reference value: 1.57%); format: functional
[3] = Stability in rat liver microsomes assessed as half life at 1.5 uM measured upto 90 mins in presence of NADPH by LC/MS analysis; format: ADME, Microsome; settings: 1.5 h
HCT-116 [4] = assay: Induction of apoptosis in human HCT-116 cells assessed as early apoptotic cells at 50 nM incubated for 48 hrs by Annexin V/FITC staining based flow cytometric method (reference value: […]); format: functional
HCT-116 [5] = assay: Induction of apoptosis in human HCT-116 cells assessed as necrotic cells at 50 nM incubated for 48 hrs by Annexin V/FITC staining based flow cytometric method (reference value: 0.05%); format: functional
HCT-116 [6] = assay: Induction of apoptosis in human HCT-116 cells assessed as viable cells at 12.5 nM incubated for 48 hrs by Annexin V/FITC staining based flow cytometric method (reference value: 97.66%); format: functional; settings: read-out: Activity
[7] = Stability in human liver microsomes assessed as half life at 1.5 uM measured upto 90 mins in presence of NADPH by LC/MS analysis; format: ADME, Microsome; settings: human liver microsomes
[8] = target: Voltage-gated inwardly rectifying potassium channel KCNH2 (Homo sapiens, UniProt Q12809); assay: Inhibition of hERG expressed in HEK293 cells by automated patch clamp assay; format: toxicity, cell-based
HCT-116 [9] = assay: Induction of apoptosis in human HCT-116 cells assessed as early apoptotic cells at 12.5 nM incubated for 48 hrs by Annexin V/FITC staining based flow cytometric method (reference value: […]); format: functional
HCT-116 [10] = assay: Induction of apoptosis in human HCT-116 cells assessed as necrotic cells at 25 nM incubated for 48 hrs by Annexin V/FITC staining based flow cytometric method (reference value: 0.05%); format: functional
HCT-116 [11] = assay: Induction of apoptosis in human HCT-116 cells assessed as late apoptotic cells at 25 nM incubated for 48 hrs by Annexin V/FITC staining based flow cytometric method (reference value: 1.57%); format: functional
HCT-116 [12] = assay: Induction of ROS generation in human HCT-116 cells at 50 nM measured after 24 hrs by DHE staining based fluorescence assay (reference value: […] %); format: functional
HCT-116 [13] = assay: Induction of ROS generation in human HCT-116 cells at 25 nM measured after 24 hrs by DHE staining based fluorescence assay (reference value: […] %); format: functional
[14] = Stability in human liver microsomes assessed as intrinsic clearance at 1.5 uM measured upto 90 mins in presence of NADPH by LC/MS analysis; format: ADME, Microsome; settings: read-out: CLH
HCT-116 [15] = assay: Induction of apoptosis in human HCT-116 cells assessed as viable cells at 50 nM incubated for 48 hrs by Annexin V/FITC staining based flow cytometric method (reference value: 97.66%); format: functional; settings: read-out: Activity
HCT-116 [16] = assay: Induction of cell cycle arrest in human HCT-116 cells assessed as accumulation of cells at G0/G1 phase at 12.5 nM incubated for 48 hrs propidium iodide based flow cytometric analysis (reference value: 26 %); format: functional
HCT-116 [17] = assay: Induction of apoptosis in human HCT-116 cells assessed as late apoptotic cells at 50 nM incubated for 48 hrs by Annexin V/FITC staining based flow cytometric method (reference value: 1.57%); format: functional
HCT-116 [18] = assay: Induction of cell cycle arrest in human HCT-116 cells assessed as accumulation of cells at G0/G1 phase at 50 nM incubated for 48 hrs propidium iodide based flow cytometric analysis (reference value: 26 %); format: functional
[19] = Aqueous solubility of the compound agitated for 24 hrs by HPLC analysis; format: physicochemical; settings: buffer
HCT-116 [20] = assay: Induction of ROS generation in human HCT-116 cells at 12.5 nM measured after 24 hrs by DHE staining based fluorescence assay (reference value: […] %); format: functional
HCT-116 [21] = assay: Induction of apoptosis in human HCT-116 cells assessed as early apoptotic cells at 25 nM incubated for 48 hrs by Annexin V/FITC staining based flow cytometric method (reference value: […]); format: functional
HCT-116 [22] = assay: Induction of apoptosis in human HCT-116 cells assessed as necrotic cells at 12.5 nM incubated for 48 hrs by Annexin V/FITC staining based flow cytometric method (reference value: 0.05%); format: functional
[23] = 1-octanol/water partition coefficient, log P of the compound agitated for 4 hrs measured by shake flask assay based HPLC analysis; format: physicochemical
[24] = Cmax in Sprague-Dawley rat plasma at 15 mg/kg, po after 0.25 to 24 hrs by LC-MS analysis; format: ADME, organism-based; set-up: time lower 0.25 hrs, dose 15 mg/kg, time upper 24 hrs, route po
HCT-116 [25] = assay: Antitumor activity in human HCT-116 cells xenografted in BALB/c nude mouse assessed tumor growth inhibition at 5 mg/kg, po administered twice a week for 19 days and measured every other day; format: functional; settings: HCT-116, 456 h, time 19 day, read-out: TGI
[26] = Acute toxicity in BALB/c mouse assessed as pathological damage in liver at 100 mg/kg, ig administered as single dose measured after 14 days by hematoxylin and eosin staining method; format: organism-based; settings: in vivo, po, 336 h, time 14 day
[27] = Acute toxicity in BALB/c mouse assessed as pathological damage in kidney at 100 mg/kg, ig administered as single dose measured after 14 days by hematoxylin and eosin staining method; format: organism-based; settings: in vivo, po, 336 h, time 14 day
HCT-116 [28] = assay: Antitumor activity in human HCT-116 cells xenografted in BALB/c nude mouse assessed tumor growth inhibition at 20 mg/kg, po administered twice a week for 19 days and measured every measured every other day; format: functional; settings: HCT-116, 456 h, time 19 day, read-out: TGI
[29] = Acute toxicity in BALB/c mouse assessed as adverse effect at 100 mg/kg, ig administered as single dose measured every day for 14 days; format: organism-based; settings: in vivo, po, 336 h, time 14 day
[30] = Toxicity in BALB/c nude mouse xenografted with human HCT-116 cells assessed as body weight loss at 10 mg/kg, po administered twice a week for 19 days and measured every other day; format: organism-based; settings: in vivo, 456 h, time 19 day
[31] = MRT (0 to 24 hrs) in Sprague-Dawley rat plasma at 5 mg/kg, iv after 0.083 to 24 hrs by LC-MS analysis; format: ADME, organism-based; settings: time 0.083-24 hrs
[32] = Acute toxicity in BALB/c mouse assessed as pathological damage in lung at 100 mg/kg, ig administered as single dose measured after 14 days by hematoxylin and eosin staining method; format: organism-based; settings: in vivo, po, 336 h, time 14 day
[33] = Acute toxicity in BALB/c mouse assessed as pathological damage in heart at 100 mg/kg, ig administered as single dose measured after 14 days by hematoxylin and eosin staining method; format: organism-based; settings: in vivo, po, 336 h, time 14 day
[34] = Acute toxicity in BALB/c mouse assessed as change in AST level in blood at 100 mg/kg, ig administered as single dose measured after 14 days; format: organism-based; settings: in vivo, po, 336 h, time 14 day
in vivo [35] = settings: Sprague-Dawley, rat, plasma, iv, 5 mg/kg
[36] = Terminal half life in Sprague-Dawley rat plasma at 5 mg/kg, iv after 0.083 to 24 hrs by LC-MS analysis; format: ADME, organism-based; settings: time 0.083-24 hrs, read-out: beta t1/2 (converted)
in vivo [37] = settings: Sprague-Dawley, rat, plasma, po, 15 mg/kg
[38] = Toxicity in BALB/c nude mouse xenografted with human HCT-116 cells assessed as body weight loss at 5 mg/kg, po administered twice a week for 19 days and measured every other day; format: organism-based; settings: in vivo, 456 h, time 19 day
[39] = Acute toxicity in BALB/c mouse assessed as change in ALT level in blood at 100 mg/kg, ig administered as single dose measured after 14 days; format: organism-based; settings: in vivo, po, 336 h, time 14 day
[40] = Oral bioavailability in Sprague-Dawley rat plasma at 15 mg/kg after 0.25 to 24 hrs by LC-MS analysis; format: ADME, organism-based; settings: time 0.25-24 hrs
[41] = Tmax in Sprague-Dawley rat plasma at 15 mg/kg, po after 0.25 to 24 hrs by LC-MS analysis; format: ADME, organism-based; settings: time 0.25-24 hrs
[42] = Acute toxicity in BALB/c mouse assessed as change in CKMB level in blood at 100 mg/kg, ig administered as single dose measured after 14 days; format: organism-based; settings: in vivo, po, 336 h, time 14 day
HCT-116 [43] = assay: Antitumor activity in human HCT-116 cells xenografted in BALB/c nude mouse assessed tumor growth inhibition at 10 mg/kg, po administered twice a week for 19 days and measured every other day; format: functional; settings: HCT-116, 456 h, time 19 day, read-out: TGI
[44] = Clearance in Sprague-Dawley rat plasma at 5 mg/kg, iv after 0.083 to 24 hrs by LC-MS analysis; format: ADME, organism-based; settings: time 0.083-24 hrs
[45] = Acute toxicity in BALB/c mouse assessed as pathological damage in spleen at 100 mg/kg, ig administered as single dose measured after 14 days by hematoxylin and eosin staining method; format: organism-based; settings: in vivo, po, 336 h, time 14 day
[46] = Toxicity in BALB/c nude mouse xenografted with human HCT-116 cells assessed as body weight loss at 40 mg/kg, po administered twice a week for 19 days and measured every other day; format: organism-based; settings: in vivo, 456 h, time 19 day
[47] = Acute toxicity in BALB/c mouse assessed as body weight loss at 100 mg/kg, ig administered as single dose measured every day for 14 days; format: organism-based; settings: in vivo, po, 336 h, time 14 day
[48] = Acute toxicity in BALB/c mouse assessed as change in CREA level in blood at 100 mg/kg, ig administered as single dose measured after 14 days; format: organism-based; settings: in vivo, po, 336 h, time 14 day
[49] = Cmax in Sprague-Dawley rat plasma at 5 mg/kg, iv after 0.083 to 24 hrs by LC-MS analysis; format: ADME, organism-based; set-up: dose 5 mg/kg, time 0.083-24 hrs, route iv
[50] = Acute toxicity in BALB/c mouse assessed as change in UREA in blood at 100 mg/kg, ig administered as single dose measured after 14 days; format: organism-based; settings: in vivo, po, 336 h, time 14 day
[51] = Terminal half life in Sprague-Dawley rat plasma at 15 mg/kg, po after 0.25 to 24 hrs by LC-MS analysis; format: ADME, organism-based; settings: time 0.25-24 hrs, read-out: beta t1/2 (converted)
[52] = MRT (0 to 24 hrs) in Sprague-Dawley rat plasma at 15 mg/kg, po after 0.25 to 24 hrs by LC-MS analysis; format: ADME, organism-based; settings: time 0.25-24 hrs

Chain of Voltage-gated inwardly rectifying potassium channel KCNH2 (Q12809 whole entry): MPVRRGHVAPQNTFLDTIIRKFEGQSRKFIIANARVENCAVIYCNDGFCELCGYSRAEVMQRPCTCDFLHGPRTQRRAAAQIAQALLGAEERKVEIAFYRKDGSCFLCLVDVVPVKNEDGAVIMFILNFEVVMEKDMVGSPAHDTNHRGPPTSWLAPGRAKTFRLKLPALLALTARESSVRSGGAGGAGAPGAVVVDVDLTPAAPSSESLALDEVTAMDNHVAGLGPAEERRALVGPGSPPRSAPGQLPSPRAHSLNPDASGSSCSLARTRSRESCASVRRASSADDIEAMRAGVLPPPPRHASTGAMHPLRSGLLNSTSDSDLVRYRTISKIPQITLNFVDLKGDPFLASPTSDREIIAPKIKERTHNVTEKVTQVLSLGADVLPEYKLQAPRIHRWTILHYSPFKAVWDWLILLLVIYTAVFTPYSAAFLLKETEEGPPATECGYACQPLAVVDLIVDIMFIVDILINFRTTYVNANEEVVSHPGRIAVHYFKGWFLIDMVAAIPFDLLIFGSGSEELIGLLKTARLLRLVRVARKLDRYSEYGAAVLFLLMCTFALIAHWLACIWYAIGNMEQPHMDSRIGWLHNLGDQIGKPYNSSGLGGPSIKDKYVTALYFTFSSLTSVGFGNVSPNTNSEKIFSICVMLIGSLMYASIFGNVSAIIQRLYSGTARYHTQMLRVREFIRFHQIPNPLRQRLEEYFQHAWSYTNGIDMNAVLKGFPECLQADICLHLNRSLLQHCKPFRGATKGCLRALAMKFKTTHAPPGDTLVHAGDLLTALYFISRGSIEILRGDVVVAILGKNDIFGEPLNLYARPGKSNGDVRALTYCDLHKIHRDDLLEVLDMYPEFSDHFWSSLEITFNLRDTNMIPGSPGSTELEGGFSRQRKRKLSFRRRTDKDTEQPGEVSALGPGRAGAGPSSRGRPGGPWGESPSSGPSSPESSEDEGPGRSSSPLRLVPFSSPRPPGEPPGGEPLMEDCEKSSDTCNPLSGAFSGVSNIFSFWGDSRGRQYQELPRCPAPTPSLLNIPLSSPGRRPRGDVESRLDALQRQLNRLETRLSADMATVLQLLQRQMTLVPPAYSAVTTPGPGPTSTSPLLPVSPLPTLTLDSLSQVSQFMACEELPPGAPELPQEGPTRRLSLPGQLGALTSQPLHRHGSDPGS

`O=c1nc2n(c3c1CN(Cc1ccccc1)CC3)CCN2Cc1ccc(F)c(Br)c1` gave a viability at […] (HCT-116 [1]) of 94.7%, an Activity (HCT-116 [2]) of 2.82% and a t1/2 [3] of 16.1 min. It also gave an Activity (HCT-116 [4]) of 3.16%, an Activity (HCT-116 [5]) of 0.16% and a viability at 0.0125 µM (HCT-116 [6]) of 95.8%. It also gave a half-life at 1.5 µM [7] of 13 min, an IC50 [8] of 4.91 µM and an Activity (HCT-116 [9]) of 1.27%. It also gave an Activity (HCT-116 [10]) of 0.12%, an Activity (HCT-116 [11]) of 3% and an Activity (HCT-116 [12]) of 99.4%. The Activity (HCT-116 [13]) was 97.9%, the CLint scaled at 1.5 µM [14] was 134 mL/min/kg and the viability at 0.05 µM (HCT-116 [15]) was 91.6%. It also gave an Activity (HCT-116 [16]) of 40%, an Activity (HCT-116 [17]) of 5.12% and an Activity (HCT-116 [18]) of 55%. The solubility at 24 h [19] was 100 µM (≈ 47.1 µg/mL), the Activity (HCT-116 [20]) was 99.46% and the Activity (HCT-116 [21]) was 2.14%. It also gave an Activity (HCT-116 [22]) of 0.07% and a logP at 4 h [23] of 3.21.

For `Cl.Cl.O.O=c1nc2n(c3c1CN(Cc1ccccc1)CC3)CCN2Cc1ccc(F)c(Br)c1`, the Cmax [24] was 2790 ng/mL, the inhibition in vivo at 5 mg/kg (HCT-116 [25]) was 56% and the Activity [26] was “Non-Toxic”. The Activity [27] was “Non-Toxic”, the inhibition in vivo at 20 mg/kg (HCT-116 [28]) was 69% and the Activity [29] was “Non-Toxic”. The Activity [30] was 23.9%, the MRT last [31] was 33.6 min and the Activity [32] was “Non-Toxic”. For the same molecule, the Activity [33] was “Non-Toxic”, the Activity [34] was “Non-Toxic” and the AUC(0-t) (in vivo [35]) was 2330 ng·h/mL. The half-life [36] was 76.2 min, the AUC(0-t) (in vivo [37]) was 4270 ng·h/mL and the Activity [38] was 27.7%. The Activity [39] was “Non-Toxic”, the bioavailability [40] was 61.1% and the Tmax [41] was 19.8 min. The Activity [42] was “Non-Toxic”, the inhibition in vivo at 10 mg/kg (HCT-116 [43]) was 60% and the clearance [44] was 35.7 mL/min/kg. The Activity [45] was “Non-Toxic”, the Activity [46] was 25% and the Activity [47] was “Non-Toxic”. The Activity [48] was “Non-Toxic”, the Cmax [49] was 4010 ng/mL and the Activity [50] was “Non-Toxic”. For the same molecule, the half-life [51] was 61.8 min and the MRT last [52] was 77.4 min.
